This passage reports Ki and melting point results from US6610692B1, “Thrombin inhibitors” (Merck & Co., Inc., priority 1998, dated 2003).

One series has as its target human α-thrombin (Homo sapiens, UniProt P00734). The series is described as follows: In vitro assay for determining proteinase inhibition: thrombin (sar-PR-pna or Z-GPR-afc substrate). The class given is biochemical.
Details: not given
As to the method: In vitro Assay for Determining Proteinase Inhibition
The assays were carried out at 25° C. in 0.05 M TRIS buffer pH 7.4, 0.15 M NaCl, 0.1% PEG. Trypsin assays also contained 1 mM CaCl2.
Concentrations of stock solutions of Z-GPR-afc were determined from measurements of absorbance at 380 nm of the 7-amino-4-trifluoromethyl coumarin produced upon complete hydrolysis of an aliquot of the stock solution by thrombin.
Times required to achieve equilibration between enzyme and inhibitor were determined in control experiments. Initial velocities of product formation in the absence (Vo) or presence of inhibitor (Vi) were measured. Assuming competitive inhibition, and that unity is negligible compared Km/[S], [I]/e, and [I]/e (where [S], [I], and e respectively represent the total concentrations, of substrate, inhibitor and enzyme), the equilibrium constant (Ki) for dissociation of the inhibitor from the enzyme can be obtained from the dependence of Vo, Vi on [I] shown in equation 1: […]
For the compound `Cc1cnc(NCCc2ccccn2)c(=O)n1CC(=O)NCc1cnc2[nH]ccc2c1`, the Ki was less than 20 nM.

The same series, now with this note: Table 1; 25° C., 0.05 M TRIS buffer pH 7.4, 0.15 M NaCl, 0.1% PEG; read-out: Inhibitory activity (Ki).
As for `Cc1c(CNC(=O)Cn2c(C)cnc(NCCc3ccccc3)c2=O)cnc2[nH]ccc12`, the inhibitory constant (Ki) is greater than 20 nM. Same read-out and setting: then `Cc1cnc(NCCCCC2CC2)c(=O)n1CC(=O)NCc1cc2cc[nH]c2cn1`, with less than 20 nM; and `Cc1cnc(NCCc2ccccn2)c(=O)n1CC(=O)NCc1cc2c(Cl)c[nH]c2cn1`, with less than 20 nM; and `Cc1cnc(NCCc2ccccc2)c(=O)n1CC(=O)NCc1ccc2[nH]nnc2c1`, with greater than 20 nM. The same measure, in the same setting: then `Cc1cnc(NCCc2ccccc2)c(=O)n1CC(=O)NCc1ccc2c(cnn2C)c1`, with greater than 20 nM. Same read-out and setting: then `Cc1cnc(NCCc2ccccc2)c(=O)n1CC(=O)NCc1ccc2[nH]ncc2c1`, with less than 20 nM; and `Cc1cc2c(c(=O)n1CC(=O)NCc1ccc3[nH]ccc3n1)NC(=O)[C@H](CC1CC1)C2`, with less than 20 nM; and `Cc1cnc(NCC(F)(F)c2ccccn2)c(=O)n1CC(=O)NCc1cnc2[nH]cnc2c1`, with less than 20 nM. As to `Cc1cnc(NCC(F)(F)c2ccccc2)c(=O)n1CC(=O)NCc1ccc2[nH]ncc2c1`, the Ki is less than 20 nM. Take `Cc1noc2ccc(CNC(=O)Cn3c(C)cnc(NCCc4ccccn4)c3=O)cc12`: the inhibition constant Ki was greater than 20 nM. In the case of `Cc1cnc(NCCc2ccccn2)c(=O)n1CC(=O)NCc1ccc2c(cnn2C)c1`, the inhibition constant Ki is greater than 20 nM.

Regarding `Cc1cc(SCC2CCC2)c(N)c(=O)n1CC(=O)NCc1ccc2[nH]nc(N)c2c1`, the Ki is greater than 20 nM.

As to `Cc1cc2c(c(=O)n1CC(=O)NCc1ccc3[nH]ccc3c1)NC(=O)[C@H](CC1CCC1)C2`, the Ki is less than 20 nM. On the same count and under the same terms, under `Cc1cc2[nH]cnc2cc1CNC(=O)Cn1c(C)cnc(NCC2(c3ccccn3)CC2)c1=O` [drawing 20] stands less than 20 nM.

Turning to `Cc1cc2c(c(=O)n1CC(=O)NCc1ccc3[nH]ccc3n1)NC(=O)[C@H](CC1CCC1)C2`, the Ki was less than 20 nM.

For the compound `Cc1cc(SCC2CCC2)c(N)c(=O)n1CC(=O)NCc1cnc2[nH]cnc2c1`, the Ki is greater than 20 nM.

On to `Cc1cnc(NCC(F)(F)c2ccccc2)c(=O)n1CC(=O)NCc1ccc2[nH]cnc2c1`, for which the Ki is less than 20 nM.

With `Cc1nc2[nH]nnc2cc1CNC(=O)Cn1c(C)cnc(NCCc2ccccc2)c1=O`, the Ki was greater than 20 nM. For `Cc1cnc(NCCc2ccccc2)c(=O)n1CC(=O)NCc1cc2nc[nH]c2cn1`, the Ki is greater than 20 nM. The same measure, in the same setting: then `Cc1cnc(NCCc2ccccc2)c(=O)n1CC(=O)NCc1ccc2[nH]cc(Cl)c2c1` [drawing 39], with less than 20 nM. The same measure, in the same setting: then `CCC[C@@H]1Cc2cc(C)n(CC(=O)NCc3ccc4[nH]ccc4c3)c(=O)c2NC1=O`, with less than 20 nM; and `Cc1cnc(NCC(F)(F)c2ccccn2)c(=O)n1CC(=O)NCc1ccc2[nH]cnc2c1`, with less than 20 nM. On the same count and under the same terms, then `Cc1cc(SCC2CC2)c(N)c(=O)n1CC(=O)NCc1cnc2[nH]cnc2c1`, with greater than 20 nM; and `Cc1cc2c(c(=O)n1CC(=O)NCc1ccc3[nH]ccc3n1)NC(=O)[C@H](CC(C)C)C2`, with less than 20 nM. For the compound `Cc1cc2c(c(=O)n1CC(=O)NCc1ccc3[nH]ncc3c1)NC(=O)[C@H](CC1CCC1)C2`, the Ki was less than 20 nM.

Consider `Cc1cnc(NCC(F)(F)CC2CC2)c(=O)n1CC(=O)NCc1ccc2[nH]ccc2n1`, for which the inhibition constant Ki is less than 20 nM. Same read-out and setting: under `Cc1cnc(NCCc2ccccc2)c(=O)n1CC(=O)NCc1cc2c(Cl)c[nH]c2cn1` stands less than 20 nM. On the same count and under the same terms, then `Cc1cnc(NCC(F)(F)c2ccccc2)c(=O)n1CC(=O)NCc1cnc2[nH]cnc2c1`, with less than 20 nM; and `Cc1cc(SCC2CC2)c(N)c(=O)n1CC(=O)NCc1ccc2[nH]cnc2c1`, with greater than 20 nM. The same measure, in the same setting: then `Cc1cnc(NCCc2cccnc2)c(=O)n1CC(=O)NCc1ccc2[nH]ccc2c1`, with less than 20 nM; and `Cc1cnc(NCC(F)(F)c2ccccc2)c(=O)n1CC(=O)NCc1cc2cc[nH]c2cn1`, with less than 20 nM. Consider `Cc1cnc(NCC(F)(F)c2ccccn2)c(=O)n1CC(=O)NCc1ccc2[nH]ccc2n1`, for which the Ki was less than 20 nM. The same measure, in the same setting: then `Cc1cnc(NCCc2ccccc2)c(=O)n1CC(=O)NCc1cnc2[nH]nc(N)c2c1`, with greater than 20 nM. Regarding `Cc1nc2cc(CNC(=O)Cn3c(C)cnc(NCC(F)(F)c4ccccc4)c3=O)ccc2[nH]1`, the Ki was greater than 20 nM. As to `Cc1cnc(NCCc2ccccc2)c(=O)n1CC(=O)NCc1cnc2[nH]cnc2c1`, the Ki is greater than 20 nM. Same read-out and setting: then `Cc1cnc(NCCc2ccc3c(c2)OCO3)c(=O)n1CC(=O)NCc1ccc2[nH]ccc2c1`, with less than 20 nM; and `Cc1cnc(NCC(F)(F)c2ccccc2)c(=O)n1CC(=O)NCc1ccc2[nH]nc(N)c2c1`, with less than 20 nM. For the compound `Cc1cnc(NCCc2ccc3c(c2)OCO3)c(=O)n1CC(=O)NCc1ccc2[nH]ncc2c1`, the inhibitory constant (Ki) is less than 20 nM. On the same count and under the same terms, then `Cc1cnc(NCC2(c3ccccn3)CC2)c(=O)n1CC(=O)NCc1ccc2[nH]ccc2c1` [drawing 16], with less than 20 nM; and `Cc1cc2[nH]cnc2cc1CNC(=O)Cn1c(C)cnc(NCCc2ccccn2)c1=O` [drawing 19], with greater than 20 nM; and `Cc1cnc(NCCc2ccccn2)c(=O)n1CC(=O)NCc1ccc2[nH]ncc2c1`, with less than 20 nM. Still for that read-out and setting: then `Cc1cc2c(c(=O)n1CC(=O)NCc1cc3cc[nH]c3cn1)NC(=O)[C@H](CC1CCC1)C2`, with less than 20 nM. On the same count and under the same terms, under `Cc1cnc(NCC2(c3ccccn3)CC2)c(=O)n1CC(=O)NCc1ccc2[nH]cnc2c1` [drawing 18] stands less than 20 nM; under `Cc1cnc(NCC(F)(F)c2ccccn2)c(=O)n1CC(=O)NCc1cc2cc[nH]c2cn1`, less than 20 nM. Take `Cc1cnc(NCC(F)(F)c2ccccn2)c(=O)n1CC(=O)NCc1ccc2[nH]ccc2c1`: the Ki was less than 20 nM. The same measure, in the same setting: under `Cc1cnc(NCCc2ccccc2)c(=O)n1CC(=O)NCc1ccc2[nH]nc(N)c2c1` stands greater than 20 nM.

Consider `Cc1cnc(NCCc2ccccn2)c(=O)n1CC(=O)NCc1ccc2[nH]cc(Cl)c2c1` [drawing 38], for which the inhibition constant Ki is less than 20 nM. The same measure, in the same setting: under `Cc1cc2c(c(=O)n1CC(=O)NCc1cnc3[nH]ccc3c1)NC(=O)[C@H](CC1CCC1)C2` stands less than 20 nM; under `Cc1cc(SCC2CCC2)c(N)c(=O)n1CC(=O)NCc1ccc2[nH]cnc2c1`, less than 20 nM.

System in a further series: not given
Test: not given
Details: not given
`Cc1cnc(NCCc2ccccc2)c(=O)n1CC(=O)NCc1ccc2[nH]cc(Cl)c2c1` [Example 36, 3-(2-Phenethylamino)-6-methyl-1-(3-chloro-5-methylenecarboxamidomethylindolyl)-pyrazinone] showed a melting point of 223 to 226 °C. The same measure, in the same setting: then `Cc1cnc(NCCc2ccccn2)c(=O)n1CC(=O)NCc1ccc2[nH]cc(Cl)c2c1` [Example 35, 3-[2-(2-Pyridyl)ethylamino]-6-methyl-1-(3-chloro-5-methylene-carboxamidomethylindolyl)-pyrazinone], with 224 to 226 °C; and `Cc1cc2[nH]cnc2cc1CNC(=O)Cn1c(C)cnc(NCC2(c3ccccn3)CC2)c1=O` [Example 34, 3-[1-(2-Pyridyl)-cyclopropylmethylamino]-6-methyl-1-(5-methylenecarboxamidomethyl-6-methylbenzimidazolyl)-pyrazinone], with 146 to 154 °C. The same measure, in the same setting: under `Cc1cnc(NCC2(c3ccccn3)CC2)c(=O)n1CC(=O)NCc1ccc2[nH]ccc2c1` [Example 39, 3-[1-(2-Pyridyl)cyclopropylmethylamino]-6-methyl-1-(5-methylenecarboxamidomethylindolyl)-pyrazinone] stands 212 to 215 °C. Still for that read-out and setting: under `Cc1cc2[nH]cnc2cc1CNC(=O)Cn1c(C)cnc(NCCc2ccccn2)c1=O` [Example 33, 3-[2-(2-Pyridyl)ethylamino]-6-methyl-1-(5-methylenecarboxamidomethyl-6-methylbenzimidazolyl)-pyrazinone] stands 175 to 184 °C. Consider `Cc1cnc(NCC2(c3ccccn3)CC2)c(=O)n1CC(=O)NCc1ccc2[nH]cnc2c1` [Example 41, 3-[1-(2-Pyridyl)cyclopropylmethylamino]-6-methyl-1-(5-methylenecarboxamidomethyl-benzimidazolyl)-pyrazinone], for which the melting point was 134 to 139 °C.
